Measured values from patent US10793531B2, “Triazole derivatives and their use as PDE4 activators” (MIRONID LIMITED, priority 2015, dated 2020).

Legend:
full-length human PDE4D5 = target: T1, full-length human PDE4D5 (Homo sapiens, UniProt Q08499); assay: PDE4 radio-assay, PDE4D5 long form activation (Experiment 1); type: biochemical; settings: n ≥ 2, read-out: PDE4D5 activity (mean % increase in counts over basal activity without added compound); for activation at 1 µM: 1 μM compound; for activation at 3 µM: 3 μM compound; for activation at 10 µM: 10 μM compound; for activation at 30 µM: 30 μM compound; for activation at 50 µM: 50 μM compound
T1 construct: stably expressed the full-length human PDE4D5, PDE4A4 and PDE4B1 long isoforms; made in house; cytosol fraction of the lysate
Protocol: (§1) One suitable method of detecting whether or not a compound is capable of serving as an activator of a PDE4 long form is using a two-step radio-assay procedure described in Experiment 1. In summary, the method involves incubating a PDE4 long form with a test small molecule activator, together with [^3H]-labelled cAMP to assess alterations in the breakdown of cAMP to the 5′-adenosine monophosphate (5′-AMP) product. A sample of the reaction mixture from such an incubation is subsequently treated with snake venom 5′-nucleotidase to allow conversion of the nucleotide [^3H]-labelled 5′-AMP to the uncharged nucleoside [^3H]-labelled adenosine, which can be separated and quantified to assess PDE4 activity and the effect of the test compound (Thompson, W. J. and Appleman, M. M. Biochemistry 10: 311-316, 1971, with some modifications as described in: Marchmont, R. J. and Houslay, M. D. Biochem J. 187: 381-92, 1980).
(§2) HEK 293 cells were transfected with pDEST™ PDE4 expression vectors using Lipofectamine LTX/Plus reagent (Invitrogen) as outlined by the manufacturer and clonal isolates expanded to obtain cell lines that stably expressed the full-length human PDE4D5, PDE4A4 and PDE4B1 long isoforms and the full length human PDE4B2 short isoform. These were called the HEK-PDE4D5, HEK-PDE4A4, HEK-PDE4B1 and HEK-PDE4B2 cell lines, respectively.
(§3) HEK-PDE4D5 cells were seeded out in 100 mm plates and incubated at 37° C. in an atmosphere of 5% CO2, 95% air. Cell lysates were prepared using KHEM buffer [50 mM KCl, 10 mM EGTA, 50 mM HEPES (pH 7.2), 1.92 mM MgCl2].
(§4) To prepare the cell lysates, the 100 mm plates containing the cells were placed on ice and washed with ice-cold PBS (phosphate buffered saline, pH 7.4). KHEM buffer (500 μl) was added to the cells. Cells were then scraped off the plate and triturated using a needle (BD Microlance™ 0.8, 40 mm). The lysed cells were then centrifuged at 2000 rpm for 10 minutes to remove cell debris and the supernatant (cell lysate containing recombinant PDE4D5) was transferred to a fresh tube and kept on ice.
(§5) The cell lysate containing recombinant PDE4D5 was transferred into a centrifuge tube and placed into an ultracentrifuge (BECKMAN COULTER) and spun at high speed (100,000 g) for 30 minutes at 4° C. The cytosol fraction was then collected and its protein amount determined using a BCA protein assay.
PDE assays were performed using a final concentration of 10 mM Tris/5 mM MgCl2 and 1 μM [3H]-cAMP (Perkin Elmer) plus PDE4D5 cell lysate cytosol fraction, containing over-expressed PDE4D5, with and without test compound. Incubations were performed at 30° C. for 5 minutes. The samples were then placed in a boiling water bath for 2 minutes to denature the PDE enzyme, and returned to ice. Samples were allowed to cool for 1.0 min after which snake venom 5′-nucleotidase (25 μl, 1 mg/ml; Sigma) was added. The tubes were vortexed and incubated in a water bath at 30° C. for 10 minutes, to attain conversion of [3H]-5′-AMP to [3H]-adenosine, and then placed on ice. Dowex ion exchange resin (Sigma) prepared as a 1:1 Dowex:water stock was thoroughly re-suspended and diluted 2:1 with ethanol. The resulting Dowex suspension (0.4 ml) was added to each tube. Tubes were vortexed to mix and then incubated on ice for at least 15 minutes before a final vortex. The Dowex resin was pelleted by centrifugation at 13,000 g at 4° C. for 3 minutes and 150 μl of the supernatant was removed to an Eppendorf tube containing 1 ml of ScintiSafe3 scintillation fluid (Fisher). Tubes were vortexed thoroughly to mix and the recovered [3H]-adenosine was quantified by measuring counts over 1 minute in a scintillation counter.

[1] = target: T2, full length human PDE4B2 short isoform (Homo sapiens, UniProt Q07343); assay: PDE4 radio-assay, PDE4B2 short form (Experiment 1); type: biochemical; settings: method of Experiment 1; FIG. 4
T2 construct: the full length human PDE4B2 short isoform; made in house; cytosol fraction of the lysate
Protocol: as §1, §2, §3, §4, §5
PDE assays were performed using a final concentration of 10 mM Tris/5 mM MgCl2 and 1 μM [3H]-cAMP (Perkin Elmer) plus PDE4D5 cell lysate cytosol fraction, containing over-expressed PDE4D5, with and without test compound. Incubations were performed at 30° C. for 5 minutes. […] Tubes were vortexed thoroughly to mix and the recovered [3H]-adenosine was quantified by measuring counts over 1 minute in a scintillation counter.

MDCK cells = assay: Reduction of intracellular cAMP levels in forskolin stimulated MDCK cells (Experiment 2); type: cell-based, canine; settings: 10 μM compound for 10 min prior to forskolin (10 μM) for 2 min; FIG. 6
Protocol: HEK 293 and MDCK cells (Public Health England, Cell Culture Collections) were maintained in DMEM supplemented with 10% (v/v) fetal bovine serum (Seralab), 2 mM L-glutamine, 1,000 U penicillin and 1,000 μg streptomycin (Life Technologies); termed complete media. Clonal HEK 293 cell lines were maintained in complete media supplemented with 0.6 mg/mL G418 (Enzo Life Sciences).
HEK 293 or MDCK cells were seeded at 100,000 cells per well, and left to adhere overnight. The cells were then treated with the compound indicated (10 μM) for 10 minutes, prior to stimulation with forskolin (10 μM, Sigma) for 2 minutes. Media was aspirated, and hydrochloric acid (0.1M) was added to lyse the cells. The cAMP assay (Enzo Life Sciences) was performed according to the manufacturers instructions.

T1 sequence (Q08499 1-745 isoform Q08499-6): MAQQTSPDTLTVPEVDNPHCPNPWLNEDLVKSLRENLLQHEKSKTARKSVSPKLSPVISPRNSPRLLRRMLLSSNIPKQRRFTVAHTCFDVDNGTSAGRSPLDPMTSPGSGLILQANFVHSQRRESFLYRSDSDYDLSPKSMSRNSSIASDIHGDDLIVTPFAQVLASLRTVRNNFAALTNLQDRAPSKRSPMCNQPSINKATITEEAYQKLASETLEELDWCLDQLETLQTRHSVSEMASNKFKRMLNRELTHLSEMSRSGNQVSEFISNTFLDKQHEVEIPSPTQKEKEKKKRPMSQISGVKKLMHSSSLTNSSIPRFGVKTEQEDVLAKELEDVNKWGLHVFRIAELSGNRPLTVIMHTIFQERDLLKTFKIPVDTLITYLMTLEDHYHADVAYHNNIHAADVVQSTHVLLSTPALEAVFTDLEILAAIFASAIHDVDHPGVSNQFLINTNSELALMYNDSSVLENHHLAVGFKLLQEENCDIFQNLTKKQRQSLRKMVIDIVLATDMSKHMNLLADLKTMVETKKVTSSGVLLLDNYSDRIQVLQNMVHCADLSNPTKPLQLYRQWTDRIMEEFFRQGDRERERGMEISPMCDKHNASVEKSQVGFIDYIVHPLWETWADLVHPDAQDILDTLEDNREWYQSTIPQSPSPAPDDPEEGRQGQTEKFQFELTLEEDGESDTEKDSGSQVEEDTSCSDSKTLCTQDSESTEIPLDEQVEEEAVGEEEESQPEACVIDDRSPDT
T2 sequence (Q07343 1-564 isoform Q07343-2): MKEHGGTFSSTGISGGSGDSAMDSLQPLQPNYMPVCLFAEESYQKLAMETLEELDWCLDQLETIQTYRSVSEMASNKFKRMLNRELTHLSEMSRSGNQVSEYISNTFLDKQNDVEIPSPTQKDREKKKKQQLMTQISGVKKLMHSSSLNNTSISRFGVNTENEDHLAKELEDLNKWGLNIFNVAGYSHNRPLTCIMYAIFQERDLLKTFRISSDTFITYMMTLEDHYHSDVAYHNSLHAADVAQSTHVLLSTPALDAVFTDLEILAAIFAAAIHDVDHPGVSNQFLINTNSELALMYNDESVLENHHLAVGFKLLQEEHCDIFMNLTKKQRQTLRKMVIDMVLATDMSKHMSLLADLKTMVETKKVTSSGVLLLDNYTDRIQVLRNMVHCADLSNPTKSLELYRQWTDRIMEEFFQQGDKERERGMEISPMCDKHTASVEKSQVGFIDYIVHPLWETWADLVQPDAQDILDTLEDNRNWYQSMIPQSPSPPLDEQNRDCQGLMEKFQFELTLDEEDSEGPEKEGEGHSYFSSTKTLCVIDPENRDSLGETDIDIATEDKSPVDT

Row | activation at 1 µM (full-length human PDE4D5) [%] | activation at 3 µM (full-length human PDE4D5) [%] | activation at 10 µM (full-length human PDE4D5) [%] | activation at 30 µM (full-length human PDE4D5) [%] | activation at 50 µM (full-length human PDE4D5) [%] | activation of PDE4B2, a short form of PDE4 (in words) [1] | SMILES | intracellular cAMP levels in MDCK cells (in words) (MDCK cells)
1 | – | – | – | – | 136 | – | CCc1nc(-c2ccc(Cl)c(F)c2)nn1CC(=O)NCc1cccc(OC)c1 [Example H, N-(3-Methoxybenzyl)-2-[3-(4-chloro-3-fluorophenyl)-5-ethyl-1H-1,2,4-triazol-1-yl]acetamide] | –
2 | – | – | – | – | 92.1 | – | CCc1nc(-c2ccc(Cl)c(F)c2)nn1CC(=O)NCc1cccc(OC(F)(F)F)c1 [Example I, N-[3-(Trifluoromethoxy)benzyl]-2-[3-(4-chloro-3-fluorophenyl)-5-ethyl-1H-1,2,4-triazol-1-yl]acetamide] | –
3 | – | – | – | – | 82.2 | – | CCc1nc(-c2ccc(Cl)c(F)c2)nn1CC(=O)NCc1ccccc1F [Example J, N-(2-Fluorobenzyl)-2-[3-(4-chloro-3-fluorophenyl)-5-ethyl-1H-1,2,4-triazol-1-yl]acetamide] | –
4 | – | – | – | – | 80.5 | – | CCc1nc(-c2ccc(Cl)c(F)c2)nn1CC(=O)NCc1ccc(F)cc1 [Example K, N-(4-Fluorobenzyl)-2-[3-(4-chloro-3-fluorophenyl)-5-ethyl-1H-1,2,4-triazol-1-yl]acetamide] | –
5 | 26 | 42.4 | 79.8 | 214 | 251 | lack of activation | CCc1nc(-c2ccc(Cl)c(F)c2)nn1CC(=O)NCc1ccc(OC)c(OC)c1 [Example L, N-(3,4-Dimethoxybenzyl)-2-[3-(4-chloro-3-fluorophenyl)-5-ethyl-1H-1,2,4-triazol-1-yl]acetamide] | –

Continued, molecule first:

Row | SMILES | activation at 1 µM (full-length human PDE4D5) [%] | activation at 3 µM (full-length human PDE4D5) [%] | activation at 10 µM (full-length human PDE4D5) [%] | activation at 30 µM (full-length human PDE4D5) [%] | activation at 50 µM (full-length human PDE4D5) [%] | activation of PDE4B2, a short form of PDE4 (in words) [1] | intracellular cAMP levels in MDCK cells (in words) (MDCK cells)
6 | COCc1nc(-c2ccc(Cl)cc2)nn1CC(=O)NCc1ccccc1 [Example B, N-Benzyl-2-[3-(4-chlorophenyl)-5-methoxymethyl-1H-1,2,4-triazol-1-yl]acetamide] | 7.2 | 0.4 | 21.9 | 64.6 | 114 | lack of activation | –
7 | Cc1nc(-c2ccc(Cl)cc2)nn1CC(=O)NCc1ccccc1 [Example C, N-Benzyl-2-[3-(4-chlorophenyl)-5-methyl-1H-1,2,4-triazol-1-yl]acetamide] | – | – | – | – | 119 | – | reduction in intracellular cAMP levels
8 | COCc1nc(-c2ccc(OC(F)(F)F)cc2)nn1CC(=O)NCc1cccc(F)c1 [Example D, N-(3-Fluorobenzyl)-2-{3-[4-(trifluoromethoxy)phenyl]-5-methoxymethyl-1H-1,2,4-triazol-1-yl}acetamide] | 52.6 | 30.6 | 51.6 | 126 | 196 | lack of activation | reduction in intracellular cAMP levels
9 | CCc1nc(-c2ccc(Cl)c(F)c2)nn1CC(=O)NCc1cccc(Cl)c1 [Example E, N-(3-Chlorobenzyl)-2-[3-(4-chloro-3-fluorophenyl)-5-ethyl-1H-1,2,4-triazol-1-yl]acetamide] | – | – | – | – | 71.1 | – | –
10 | CCc1nc(-c2ccc(Cl)c(F)c2)nn1CC(=O)NCc1cccc(C#N)c1 [Example F, N-(3-Cyanobenzyl)-2-[3-(4-chloro-3-fluorophenyl)-5-ethyl-1H-1,2,4-triazol-1-yl]acetamide] | – | – | – | – | 107 | – | –
11 | CCc1nc(-c2ccc(Cl)c(F)c2)nn1CC(=O)NCc1cccc(C(F)(F)F)c1 [Example G, N-[3-(Trifluoromethyl)benzyl]-2-[3-(4-chloro-3-fluorophenyl)-5-ethyl-1H-1,2,4-triazol-1-yl]acetamide] | – | – | – | – | 171 | – | –
